Results reported in patent publication EP4566614A1, “DRY EYE REMEDY CONTAINING DNA OLIGONUCLEOTIDE […] BINDING TO IFN-y” (TAGCyx Biotechnologies Inc., priority 2022, dated 2024).

Target: T1, IFN-y (Homo sapiens, UniProt P01579)
T1 sequence (P01579 24-166): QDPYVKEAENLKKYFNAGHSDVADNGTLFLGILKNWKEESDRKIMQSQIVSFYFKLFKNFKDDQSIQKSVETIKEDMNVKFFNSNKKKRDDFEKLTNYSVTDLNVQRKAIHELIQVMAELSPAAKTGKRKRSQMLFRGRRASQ
Assay: Binding of PEG-modified form to IFN-y by SPR (Surface Plasmon Resonance)
Details: PEG (40000) on base X
From the text: With the base of X produced in Example 2, Aptamer 3 (1 eq) having a primary amine side chain and commercially available NHS-PEG (40000) (1.5 eq) were mixed in a phosphate buffer at pH 7 to 8 and the mixture was stirred for 1 day at room temperature. The reaction solution was concentrated and the resulting modified form was purified by reversed phase HPLC to obtain a PEG-modified form of Aptamer 3.

## PEG-modified form of Aptamer 3: Aptamer 3 having a primary amine side chain at X reacted with NHS-PEG (40000) (CCCGCCCGGGTCCGCGAAGCGGTAGGTNTGGGCTAGGCNGCTGGCGGGCGCGNAGCG; DNA aptamer, amine side-chain residue X conjugated to 40 kDa PEG, further chemistry not given here)
  ability to bind to IFN-y: retained its ability to bind to IFN-y
Listed as PEG-modified form of a DNA aptamer having the sequence of SEQ ID NO: 3
  ability to bind to IFN-y: capable of binding to IFN-γ
